Patent US11702404B2, “GLP-1R modulating compounds” (priority 2019, dated 2023)
Like-named read-outs stand apart in the source and are kept apart here.

Columns and labels:
[1] = Microsomal stability, human liver microsomes (predicted hepatic clearance); details: predicted from in vitro microsomal stability data
[2] = molecular target: GLP-1R (Homo sapiens, UniProt P43220); assay: GLP-1R activation: cAMP increase in CHO cells stably expressing GLP-1R; format: cell-based; details: read-out: EC50
[3] = cAMP increase, CHO cells stably expressing GLP-1R, 10 point dose response, 30 minutes incubation

Sequence of GLP-1R (P43220 24-463): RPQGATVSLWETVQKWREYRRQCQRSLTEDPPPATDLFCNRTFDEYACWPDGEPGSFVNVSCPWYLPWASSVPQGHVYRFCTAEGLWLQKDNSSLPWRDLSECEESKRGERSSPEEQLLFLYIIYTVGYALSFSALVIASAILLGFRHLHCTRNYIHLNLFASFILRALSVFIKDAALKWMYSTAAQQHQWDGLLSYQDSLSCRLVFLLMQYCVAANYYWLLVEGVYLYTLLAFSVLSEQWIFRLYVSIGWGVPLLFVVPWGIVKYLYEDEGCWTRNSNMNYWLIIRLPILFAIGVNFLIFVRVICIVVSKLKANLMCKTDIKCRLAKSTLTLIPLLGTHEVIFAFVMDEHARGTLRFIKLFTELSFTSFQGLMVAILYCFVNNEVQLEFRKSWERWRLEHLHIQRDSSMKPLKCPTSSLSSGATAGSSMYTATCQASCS

Compound | Predicted Hepatic Clearance (Pred. Cl.) [1] | EC50 [2, 3] | EC50 [2]
N#Cc1ccc(COc2cccc(-c3cc(F)c(Cc4nc5ccc(C(=O)O)cc5n4CC45CCC(CO4)C5)cc3F)n2)c(F)c1 (stereo not drawn) [Example 738] | 9.33 mL/min/kg | 1.87 nM | 
COCCC1(Cn2c(Cc3cc(F)c(-c4cccc(OCc5ccc(C#N)cc5F)n4)cc3F)nc3ccc(C(=O)O)cc32)CC1 [Example 739] | 1.83 mL/min/kg | 0.74 nM | 
N#Cc1ccc(COc2cccc(-c3cc(F)c(Cc4nc5ccc(C(=O)O)cc5n4CC4CC5CCN4CC5)cc3F)n2)c(F)c1 (stereo not drawn) [Example 740] | 2.17 mL/min/kg |  | 1160 nM
N#Cc1ccc(COc2cccc(-c3cc(F)c(Cc4nc5ccc(C(=O)O)cc5n4CC45CCN(CC4)C5)cc3F)n2)c(F)c1 [Example 742] | 1.83 mL/min/kg | 54.8 nM | 
COCC1(Cn2c(Cc3cc(F)c(-c4cccc(OCc5ccc(C#N)cc5F)n4)cc3F)nc3ccc(C(=O)O)cc32)CCC1 [Example 743] | 6.67 mL/min/kg | 2.48 nM | 
CO[C@H]1C[C@@H](Cn2c(Cc3cc(F)c(-c4cccc(OCc5ccc(C#N)cc5F)n4)cc3F)nc3ccc(C(=O)O)cc32)C1 [Example 744] | 1.83 mL/min/kg | 10.6 nM | 
CO[C@H]1C[C@H](Cn2c(Cc3cc(F)c(-c4cccc(OCc5ccc(C#N)cc5F)n4)cc3F)nc3ccc(C(=O)O)cc32)C1 [Example 745] | 1.83 mL/min/kg | 83.5 nM | 
COC1(Cn2c(Cc3cc(F)c(-c4cccc(OCc5ccc(C#N)cc5F)n4)cc3F)nc3ccc(C(=O)O)cc32)CC1 [Example 746] | 5 mL/min/kg | 0.87 nM | 
COC1(Cn2c(Cc3cc(F)c(-c4cccc(OCc5ccc(C#N)cc5F)n4)cc3F)nc3ccc(C(=O)O)cc32)CCC1 [Example 747] | 7.33 mL/min/kg | 0.81 nM | 
Cc1nnc(Cn2c(Cc3cc(F)c(-c4cccc(OCc5ccc(C#N)cc5F)n4)cc3F)nc3ccc(C(=O)O)cc32)o1 [Example 748] | 1.83 mL/min/kg | 1320 nM | 
O=C(O)c1ccc2nc(Cc3c(F)cc(-c4cccc(OCc5ccc(C(F)F)cc5F)n4)c(F)c3F)n(Cc3ncco3)c2c1 [Example 749] | 4.33 mL/min/kg | 0.33 nM | 
COCCn1c(Cc2c(F)cc(-c3cccc(OCc4ccc(C(F)F)cc4F)n3)c(F)c2F)nc2ccc(C(=O)O)cc21 [Example 750] | 4.17 mL/min/kg | 1.26 nM | 
N#CCC1(Cn2c(Cc3cc(F)c(-c4ccnc(OCc5ccc(C(F)F)cc5F)n4)cc3F)nc3ccc(C(=O)O)cc32)CC1 [Example 751] | 7.17 mL/min/kg | 0.19 nM | 
COCCn1c(Cc2cc(F)c(-c3ccc(F)c(OCc4ccc(C(F)F)cc4F)n3)cc2F)nc2ccc(C(=O)O)cc21 [Example 752] | 1.83 mL/min/kg | 0.51 nM | 
COCCn1c(Cc2cc(F)c(-c3cccc(OCc4ccc(C#N)cc4F)n3)cc2CO)nc2ccc(C(=O)O)cc21 [Example 753] | 10.3 mL/min/kg | 0.74 nM | 
O=C(O)c1ccc2nc(Cc3cc(F)c(-c4nccc(OCc5ccc(C(F)(F)F)cc5F)n4)cc3F)n(C[C@@H]3CCO3)c2c1 [Example 754] | 6 mL/min/kg | 0.15 nM | 
N#Cc1cc(F)c(COc2ccnc(-c3cc(F)c(Cc4nc5ccc(C(=O)O)cc5n4C[C@@H]4CCO4)cc3F)n2)cc1F [Example 755] | 9.83 mL/min/kg | 0.42 nM | 
O=C(O)c1ccc2nc(Cc3c(F)cc(-c4cccc(OCc5ccc(C(F)F)cc5F)n4)c(F)c3F)n(CC34CC(CO3)C4)c2c1 [Example 756] | 7.67 mL/min/kg | 1.42 nM | 
O=C(O)c1ccc2nc(Cc3c(F)cc(-c4cccc(OCc5ccc(C(F)F)cc5F)n4)c(F)c3F)n(C[C@@H]3CCO3)c2c1 [Example 758] | 4.5 mL/min/kg | 0.03 nM | 
O=C(O)c1ccc2nc(Cc3cc(F)c(-c4cccc(OCc5ccc(Cl)nc5OC(F)F)n4)cc3F)n(C[C@@H]3CCO3)c2c1 [Example 759] | 1.83 mL/min/kg | 0.64 nM | 
N#Cc1ccc(COc2ccc(F)c(-c3cc(F)c(Cc4nc5c(F)cc(C(=O)O)cc5n4CC4(CF)CC4)cc3F)n2)c(F)c1 [Example 760] | 6.5 mL/min/kg | 0.26 nM | 

Compound | Predicted Hepatic Clearance (Pred. Cl.) [1] | EC50 [2, 3] | EC50 [2]
COCCn1c(Cc2cc(F)c(-c3ccc(F)c(OCc4ccc(C(F)(F)F)cc4F)n3)cc2F)nc2c(F)cc(C(=O)O)cc21 [Example 761] | 1.83 mL/min/kg | 0.51 nM | 
COCCn1c(Cc2cc(F)c(-c3ccc(F)c(OCc4ccc(C(F)F)cc4F)n3)cc2F)nc2c(F)cc(C(=O)O)cc21 [Example 762] | 1.83 mL/min/kg | 0.9 nM | 
COCCn1c(Cc2cc(F)c(-c3ccc(F)c(OCc4ccc(C#N)cc4F)n3)cc2F)nc2c(F)cc(C(=O)O)cc21 [Example 764] | 3.17 mL/min/kg | 0.76 nM | 
O=C(O)c1cc(F)c2nc(Cc3cc(F)c(-c4ccc(F)c(OCc5ccc(C(F)(F)F)cc5F)n4)cc3F)n(C[C@@H]3CCO3)c2c1 [Example 765] | 1.83 mL/min/kg | 0.51 nM | 
N#Cc1cc(F)c(COc2nc(-c3cc(F)c(Cc4nc5c(F)cc(C(=O)O)cc5n4C[C@@H]4CCO4)cc3F)ccc2F)cc1F [Example 766] | 3 mL/min/kg | 0.13 nM | 
O=C(O)c1cc(F)c2nc(Cc3cc(F)c(-c4ccc(F)c(OCc5ccc(C(F)F)cc5F)n4)cc3F)n(C[C@@H]3CCO3)c2c1 [Example 767] | 1.83 mL/min/kg | 0.51 nM | 
N#Cc1ccc(COc2nc(-c3cc(F)c(Cc4nc5c(F)cc(C(=O)O)cc5n4C[C@@H]4CCO4)cc3F)ccc2F)c(F)c1 [Example 768] | 2.75 mL/min/kg | 0.04 nM | 
O=C(O)c1cc(F)c2nc(Cc3cc(F)c(-c4nc(OCc5ccc(C(F)F)cc5F)ccc4F)cc3F)n(C[C@@H]3CCO3)c2c1 [Example 769] | 3.67 mL/min/kg | 0.03 nM | 
O=C(O)c1cc(F)c2nc(Cc3ccc(-c4ccc(F)c(OCc5ccc(C(F)F)cc5F)n4)cc3F)n(CC34CC(CO3)C4)c2c1 [Example 770] | 1.83 mL/min/kg | 2.62 nM | 
N#Cc1ccc(COc2nc(-c3ccc(Cc4nc5c(F)cc(C(=O)O)cc5n4CC45CC(CO4)C5)c(F)c3)ccc2F)c(F)c1 [Example 771] | 1.83 mL/min/kg | 2.17 nM | 
O=C(O)c1ccc2nc(Cc3cc(F)c(-c4ccc(F)c(OCc5ccc(C(F)F)cc5F)n4)cc3F)n(CC34CC(CO3)C4)c2c1 [Example 772] | 1.83 mL/min/kg | 0.61 nM | 
O=C(O)c1ccc2nc(Cc3ccc(-c4ccc(F)c(OCc5ccc(C(F)F)cc5F)n4)cc3F)n(C[C@@H]3CCO3)c2c1 [Example 773] | 1.83 mL/min/kg | 0.12 nM | 
O=C(O)c1cc(F)c2nc(Cc3ccc(-c4ccc(F)c(OCc5ccc(C(F)F)cc5F)n4)cc3F)n(C[C@@H]3CCO3)c2c1 [Example 774] | 2.08 mL/min/kg | 0.06 nM | 
N#Cc1ccc(COc2cccc(-c3cc(CO)c(Cc4nc5ccc(C(=O)O)cc5n4C[C@@H]4CCO4)cc3F)n2)c(F)c1 [Example 775] | 3.17 mL/min/kg | 0.1 nM | 
N#Cc1cc(F)c(COc2cccc(-c3ccc(Cc4nc5c(F)cc(C(=O)O)cc5n4C[C@@H]4CCO4)cc3F)n2)cc1F [Example 776] | 3.17 mL/min/kg | 26.9 nM | 
N#Cc1ccc(COc2ccnc(-c3ccc(Cc4nc5ccc(C(=O)O)cc5n4C[C@@H]4CCO4)cc3F)n2)c(F)c1 [Example 777] | 4.5 mL/min/kg | 0.73 nM | 
N#Cc1ccc(COc2ccnc(-c3cc(F)c(Cc4nc5c(F)cc(C(=O)O)cc5n4C[C@@H]4CCO4)cc3F)n2)c(F)c1 [Example 778] | 3.67 mL/min/kg | 0.13 nM | 
N#Cc1ccc(COc2nc(-c3cc(F)c(Cc4nc5c(F)cc(C(=O)O)cc5n4C[C@@H]4CCO4)cc3F)ccc2F)cn1 [Example 779] | 1.83 mL/min/kg | 0.17 nM | 
N#Cc1ccc(COc2nc(-c3ccc(Cc4nc5c(F)cc(C(=O)O)cc5n4C[C@@H]4CCO4)cc3F)ccc2F)c(F)c1 [Example 780] | 1.83 mL/min/kg | 0.12 nM | 
O=C(O)c1cc(F)c2nc(Cc3cc(F)c(-c4nc(OCc5ccc(C(F)(F)F)cc5F)ccc4F)cc3F)n(C[C@@H]3CCO3)c2c1 [Example 781] | 3.17 mL/min/kg | 0.03 nM | 
N#Cc1ccc(COc2ccc(F)c(-c3cc(F)c(Cc4nc5c(F)cc(C(=O)O)cc5n4CC45COC(C4)C5)cc3F)n2)c(F)c1 [Example 782] | 11.2 mL/min/kg | 3.31 nM | 
